The values that follow come from US9529005B2, “Modulating bacterial MAM polypeptides in pathogenic disease” (priority 2011, dated 2016).

Holding throughout (assay): Antimicrobial susceptibility testing (MIC), BD Phoenix Automated Microbiology System
Common to all, as to assay type: cell-based

One assay deals with Acinetobacter baumannii. To be noted: for MIC: Acinetobacter baumannii. An excerpt: (§1) The inventors performed antimicrobial susceptibility testing (AST) by determining the minimal inhibiting concentration (MIC) of a panel of antimicrobials on all twenty bacterial isolates using the BD Phoenix Automated Microbiology System (Table 3). Antimicrobial panels included several drugs from each of the four most commonly used classes of antimicrobials, aminoglycosides, β-lactams, carbapenems and fluoroquinolones. The panels also included antimicrobials from other classes, such as trimethoprim/sulfamethoxazole, but resistance to these was not considered in the classification of isolates as multidrug-resistant.

The test system of a further assay is Escherichia coli. Conditions: for MIC: Escherichia coli.
Description: as §1

The subject of a further assay is Klebsiella ssp. Conditions: for MIC: Klebsiella.
Description: as §1

A further assay relates to Pseudomonas aeruginosa.
Description: as §1

Setting [1] is: Acinetobacter baumannii isolate 1.
Where [2] appears, read: Acinetobacter baumannii isolate 2.
The mark [3] stands for this setting: Acinetobacter baumannii isolate 3.
The mark [4] stands for this setting: Acinetobacter baumannii isolate 4.
Where [5] appears, read: Acinetobacter baumannii isolate 5.
[6] abbreviates: Escherichia coli isolate 1, read-out: minimal inhibiting concentration.
The mark [7] stands for this setting: Escherichia coli isolate 2, read-out: minimal inhibiting concentration.
The mark [8] stands for this setting: Escherichia coli isolate 3, read-out: minimal inhibiting concentration.
Setting [9] is: Escherichia coli isolate 4, read-out: minimal inhibiting concentration.
[10] abbreviates: Escherichia coli isolate 5, read-out: minimal inhibiting concentration.
[11] abbreviates: read-out: minimal inhibiting concentration, Klebsiella ssp. isolate 1.
The mark [12] stands for this setting: read-out: minimal inhibiting concentration, Klebsiella ssp. isolate 2.
Setting [13] is: read-out: minimal inhibiting concentration, Klebsiella ssp. isolate 3.
[14] abbreviates: read-out: minimal inhibiting concentration, Klebsiella ssp. isolate 4.
Where [15] appears, read: read-out: minimal inhibiting concentration, Klebsiella ssp. isolate 5.
The mark [16] stands for this setting: read-out: minimal inhibiting concentration, Acinetobacter baumannii isolate 1.
Where [17] appears, read: read-out: minimal inhibiting concentration, Acinetobacter baumannii isolate 2.
The mark [18] stands for this setting: read-out: minimal inhibiting concentration, Acinetobacter baumannii isolate 3.
The mark [19] stands for this setting: read-out: minimal inhibiting concentration, Acinetobacter baumannii isolate 4.
The mark [20] stands for this setting: read-out: minimal inhibiting concentration, Acinetobacter baumannii isolate 5.
The mark [21] stands for this setting: Pseudomonas aeruginosa isolate 1.
Where [22] appears, read: Pseudomonas aeruginosa isolate 2.
The mark [23] stands for this setting: Pseudomonas aeruginosa isolate 3.
The mark [24] stands for this setting: Pseudomonas aeruginosa isolate 4.
Setting [25] is: Pseudomonas aeruginosa isolate 5.

Values after ≈ are worked out from the molar mass of the structure shown. Like-named read-outs stand apart in the source and are kept apart here.
Wherever interpretation of the result is given: key: R, resistant; I, intermediate; S, susceptible; R*: *As a rule, when ESBL is detected, an interpretation of susceptible or intermediate for penicillins, cephalosporins and aztreonam is reported as resistant.

Consider `C[C@H]1[C@H](NC(=O)/C(=N\OC(C)(C)C(=O)O)c2csc(N)n2)C(=O)N1S(=O)(=O)O` [Az., Aztreonam], for which the “interpretation of the result” value with Acinetobacter baumannii (setting [1]), with Acinetobacter baumannii (setting [2]), in the assay with Acinetobacter baumannii (setting [3]), with Acinetobacter baumannii (setting [4]), with Acinetobacter baumannii (setting [5]) and with Escherichia coli (Escherichia coli isolate 1) was “R” each time. Moreover, the “interpretation of the result” value in the assay with Escherichia coli (Escherichia coli isolate 2), in the assay with Escherichia coli (Escherichia coli isolate 3), in the assay with Escherichia coli (Escherichia coli isolate 4), with Klebsiella ssp. (Klebsiella ssp. isolate 1), in the assay on Klebsiella ssp. (Klebsiella ssp. isolate 2) and in the assay on Klebsiella ssp. (Klebsiella ssp. isolate 3) was “R” each time. Besides, the “interpretation of the result” value with Klebsiella ssp. (Klebsiella ssp. isolate 4) and in the assay on Klebsiella ssp. (Klebsiella ssp. isolate 5) was “R” each time. Further, the MIC was over 16 mg/L in the assay with Acinetobacter baumannii (Acinetobacter baumannii isolate 1, read-out: minimal inhibiting concentration); over 16 mg/L in the assay with Acinetobacter baumannii (Acinetobacter baumannii isolate 2, read-out: minimal inhibiting concentration); over 16 mg/L in the assay with Acinetobacter baumannii (Acinetobacter baumannii isolate 3, read-out: minimal inhibiting concentration); over 16 mg/L in the assay with Acinetobacter baumannii (Acinetobacter baumannii isolate 4, read-out: minimal inhibiting concentration); over 16 mg/L in the assay on Acinetobacter baumannii (Acinetobacter baumannii isolate 5, read-out: minimal inhibiting concentration); over 16 mg/L with Escherichia coli (setting [6]). The MIC is over 16 mg/L in the assay with Escherichia coli (setting [7]); over 16 mg/L in the assay on Escherichia coli (setting [8]); over 16 mg/L with Escherichia coli (setting [9]); 8 mg/L (≈ 18.4 µM) with Escherichia coli (setting [10]); over 16 mg/L in the assay with Klebsiella ssp. (Klebsiella ssp. isolate 1, read-out: minimal inhibiting concentration); over 16 mg/L in the assay with Klebsiella ssp. (Klebsiella ssp. isolate 2, read-out: minimal inhibiting concentration). The MIC in the assay with Klebsiella ssp. (Klebsiella ssp. isolate 3, read-out: minimal inhibiting concentration) is over 16 mg/L; in the assay on Klebsiella ssp. (Klebsiella ssp. isolate 4, read-out: minimal inhibiting concentration) it was over 16 mg/L; in the assay on Klebsiella ssp. (Klebsiella ssp. isolate 5, read-out: minimal inhibiting concentration), over 16 mg/L.

Consider `CO/N=C(\C(=O)N[C@@H]1C(=O)N2C(C(=O)[O-])=C(C[N+]3(C)CCCC3)CS[C@H]12)c1csc(N)n1` [Cefe., Cefepime], for which the “interpretation of the result” value in the assay on Escherichia coli (Escherichia coli isolate 1), in the assay with Escherichia coli (Escherichia coli isolate 2), in the assay with Escherichia coli (Escherichia coli isolate 3), with Escherichia coli (Escherichia coli isolate 4), in the assay with Klebsiella ssp. (Klebsiella ssp. isolate 1) and in the assay with Klebsiella ssp. (Klebsiella ssp. isolate 2) was “R” each time. The “interpretation of the result” value with Klebsiella ssp. (Klebsiella ssp. isolate 4) was “R”. Also, the MIC was over 16 mg/L in the assay on Escherichia coli (read-out: minimal inhibiting concentration, Escherichia coli isolate 1); over 16 mg/L with Escherichia coli (read-out: minimal inhibiting concentration, Escherichia coli isolate 2); over 16 mg/L in the assay on Escherichia coli (read-out: minimal inhibiting concentration, Escherichia coli isolate 3); over 16 mg/L in the assay with Escherichia coli (read-out: minimal inhibiting concentration, Escherichia coli isolate 4); 8 mg/L (≈ 16.6 µM) in the assay on Escherichia coli (read-out: minimal inhibiting concentration, Escherichia coli isolate 5); over 16 mg/L with Klebsiella ssp. (setting [11]). Also, the MIC with Klebsiella ssp. (setting [12]) is over 16 mg/L; in the assay on Klebsiella ssp. (setting [13]) it was 2 mg/L (≈ 4.16 µM); in the assay on Klebsiella ssp. (setting [14]), over 16 mg/L; in the assay with Klebsiella ssp. (setting [15]) it was 2 mg/L (≈ 4.16 µM).

Take `CO/N=C(\C(=O)N[C@@H]1C(=O)N2C(C(=O)O)=C(COC(C)=O)CS[C@H]12)c1csc(N)n1` [Cefo., Cefotaxime]: the “interpretation of the result” value in the assay with Acinetobacter baumannii (setting [1]), with Acinetobacter baumannii (setting [2]), in the assay on Acinetobacter baumannii (setting [3]), with Acinetobacter baumannii (setting [4]), in the assay on Acinetobacter baumannii (setting [5]) and in the assay with Klebsiella ssp. (Klebsiella ssp. isolate 1) was “R” in each case. In addition, the “interpretation of the result” value is “R” in the assay on Klebsiella ssp. (Klebsiella ssp. isolate 2), “S” in the assay on Klebsiella ssp. (Klebsiella ssp. isolate 3), “R” with Klebsiella ssp. (Klebsiella ssp. isolate 4) and “R” with Klebsiella ssp. (Klebsiella ssp. isolate 5). Besides, the MIC in the assay with Acinetobacter baumannii (setting [16]), with Acinetobacter baumannii (setting [17]), in the assay on Acinetobacter baumannii (setting [18]), in the assay on Acinetobacter baumannii (setting [19]), with Acinetobacter baumannii (setting [20]) and with Klebsiella ssp. (setting [11]) was over 32 mg/L throughout. The MIC in the assay on Klebsiella ssp. (setting [12]) is over 32 mg/L; in the assay on Klebsiella ssp. (setting [13]), at most 4 mg/L; with Klebsiella ssp. (setting [14]), over 32 mg/L; in the assay with Klebsiella ssp. (setting [15]) it was over 32 mg/L.

For `CC(=O)OCC1=C(C(=O)O)N2C(=O)[C@@H](NC(=O)Cc3cccs3)[C@H]2SC1` [Ceph., Cephalotin], the “interpretation of the result” value with Acinetobacter baumannii (setting [1]), in the assay on Acinetobacter baumannii (setting [2]), with Acinetobacter baumannii (setting [3]), in the assay with Acinetobacter baumannii (setting [4]) and in the assay on Acinetobacter baumannii (setting [5]) was “R” each time. The minimal inhibiting concentration with Acinetobacter baumannii (setting [1]), with Acinetobacter baumannii (setting [2]), with Acinetobacter baumannii (setting [3]), with Acinetobacter baumannii (setting [4]) and with Acinetobacter baumannii (setting [5]) was over 16 µg/mL each time.

Regarding `O=C(O)c1cn(C2CC2)c2cc(N3CCNCC3)c(F)cc2c1=O` [Cipro., Ciprofloxacin], the “interpretation of the result” value in the assay with Escherichia coli (Escherichia coli isolate 1), in the assay on Escherichia coli (Escherichia coli isolate 2), in the assay with Escherichia coli (Escherichia coli isolate 3), in the assay on Escherichia coli (Escherichia coli isolate 4) and with Escherichia coli (Escherichia coli isolate 5) was “R” each time. Also, the MIC in the assay with Escherichia coli (setting [6]), in the assay with Escherichia coli (setting [7]), in the assay on Escherichia coli (setting [8]), in the assay on Escherichia coli (setting [9]) and in the assay with Escherichia coli (setting [10]) was over 2 mg/L in each case.

For the compound `C[C@@H](O)[C@H]1C(=O)N2C(C(=O)O)=C(S[C@@H]3CN[C@H](C(=O)Nc4cccc(C(=O)O)c4)C3)[C@H](C)[C@H]12` [Ert., Ertapenem], the susceptibility of isolates result in the assay on Escherichia coli (all E. coli isolates) and with Klebsiella ssp. (all Klebsiella ssp. isolates) was “susceptible” in each case. Besides, the “interpretation of the result” value with Klebsiella ssp. (Klebsiella ssp. isolate 2), in the assay on Klebsiella ssp. (Klebsiella ssp. isolate 3) and in the assay with Klebsiella ssp. (Klebsiella ssp. isolate 4) was “S” throughout. The MIC with Klebsiella ssp. (setting [12]), with Klebsiella ssp. (setting [13]) and in the assay on Klebsiella ssp. (setting [14]) was at most 0.5 mg/L throughout.

For the compound `COc1c(N2CCNC(C)C2)c(F)cc2c(=O)c(C(=O)O)cn(C3CC3)c12` (stereo not shown) [Gati., Gatifloxacin], the “interpretation of the result” value in the assay on Acinetobacter baumannii (setting [1]) was “R”; in the assay with Acinetobacter baumannii (setting [2]), “R”; in the assay on Acinetobacter baumannii (setting [3]), “I”; in the assay on Acinetobacter baumannii (setting [4]), “R”; with Acinetobacter baumannii (setting [5]), “R”. Besides, the MIC was over 4 mg/L in the assay on Acinetobacter baumannii (setting [16]); over 4 mg/L in the assay with Acinetobacter baumannii (setting [17]); 4 mg/L (≈ 10.7 µM) in the assay with Acinetobacter baumannii (setting [18]); over 4 mg/L in the assay with Acinetobacter baumannii (setting [19]); over 4 mg/L in the assay with Acinetobacter baumannii (setting [20]).

With `CCN1CCN(C(=O)N[C@@H](C(=O)N[C@@H]2C(=O)N3[C@@H]2SC(C)(C)[C@@H]3C(=O)O)c2ccccc2)C(=O)C1=O` [Pip., Piperacillin], the “interpretation of the result” value in the assay on Acinetobacter baumannii (setting [1]), with Acinetobacter baumannii (setting [2]), in the assay with Acinetobacter baumannii (setting [3]), with Acinetobacter baumannii (setting [4]) and with Acinetobacter baumannii (setting [5]) was “R” each time. The MIC in the assay on Acinetobacter baumannii (setting [16]), in the assay on Acinetobacter baumannii (setting [17]), in the assay with Acinetobacter baumannii (setting [18]), in the assay on Acinetobacter baumannii (setting [19]) and in the assay with Acinetobacter baumannii (setting [20]) was over 64 mg/L each time.

For Amoxillin-Calvulanate [AmoxC.], the “interpretation of the result” value with Acinetobacter baumannii (setting [1]), in the assay with Acinetobacter baumannii (setting [2]), in the assay on Acinetobacter baumannii (setting [3]), in the assay on Acinetobacter baumannii (setting [4]), in the assay on Acinetobacter baumannii (setting [5]) and in the assay on Klebsiella ssp. (Klebsiella ssp. isolate 1) was “R” in each case. Also, the “interpretation of the result” value with Klebsiella ssp. (Klebsiella ssp. isolate 2), in the assay on Klebsiella ssp. (Klebsiella ssp. isolate 3), in the assay with Klebsiella ssp. (Klebsiella ssp. isolate 4) and in the assay with Klebsiella ssp. (Klebsiella ssp. isolate 5) was “R” in each case. The minimal inhibiting concentration in the assay on Acinetobacter baumannii (setting [1]), in the assay with Acinetobacter baumannii (setting [2]), in the assay on Acinetobacter baumannii (setting [3]), with Acinetobacter baumannii (setting [4]), in the assay on Acinetobacter baumannii (setting [5]) and in the assay on Klebsiella ssp. (Klebsiella ssp. isolate 1) was 16/8 throughout. Besides, the minimal inhibiting concentration in the assay with Klebsiella ssp. (Klebsiella ssp. isolate 2) is 16/8; in the assay with Klebsiella ssp. (Klebsiella ssp. isolate 3), 8/4; with Klebsiella ssp. (Klebsiella ssp. isolate 4), 16/8; in the assay on Klebsiella ssp. (Klebsiella ssp. isolate 5) it was 16/8.

On to Ampicillin-Sulbactam [AmpS.], for which the “interpretation of the result” value in the assay with Escherichia coli (Escherichia coli isolate 1), with Escherichia coli (Escherichia coli isolate 2), with Escherichia coli (Escherichia coli isolate 3), in the assay on Escherichia coli (Escherichia coli isolate 4), in the assay with Escherichia coli (Escherichia coli isolate 5) and with Pseudomonas aeruginosa (setting [21]) was “R” throughout. Also, the “interpretation of the result” value with Pseudomonas aeruginosa (setting [22]), in the assay on Pseudomonas aeruginosa (setting [23]), in the assay with Pseudomonas aeruginosa (setting [24]) and in the assay on Pseudomonas aeruginosa (setting [25]) was “R” each time. For the same compound, the minimal inhibiting concentration in the assay on Escherichia coli (Escherichia coli isolate 1), with Escherichia coli (Escherichia coli isolate 2), with Escherichia coli (Escherichia coli isolate 3), in the assay with Escherichia coli (Escherichia coli isolate 4), with Escherichia coli (Escherichia coli isolate 5) and in the assay with Pseudomonas aeruginosa (setting [21]) was 16/8 each time. The minimal inhibiting concentration in the assay on Pseudomonas aeruginosa (setting [22]), in the assay with Pseudomonas aeruginosa (setting [23]), with Pseudomonas aeruginosa (setting [24]) and in the assay with Pseudomonas aeruginosa (setting [25]) was 16/8 throughout.
